Target: protein of SEQ ID NO 1 (yxel gene product) (Bacillus subtilis, UniProt P54948, G69A/I70F/P219S/T91M)
Details: sodium acetate 100 mM final concentration; substrate 0.2 mg/ml, 37°, 15 min, PBS buffer; compared with background activity of plasmid-free E. coli strain
Excerpt: Cells obtained as in example 2 were harvested by centrifugation and washed twice with PBS buffer to remove residual medium components. The final cell pellet was resuspended in PBS buffer (per liter water: 8 g NaCl, 0.2 g KCl, 1.44 g Na2HPO4, 0.24 g K H2PO4, pH 7.4) to reach a final OD600 of 30. This cell suspension of strains (either without plasmid or carrying the expression vectors described in Example 1) was used for the activity tests. The washed cell suspensions were contacted in PBS buffer with N-alpha-lauryl-glutamin (0.2 mg/ml final concentration, “LG” in FIG. 35), at 37° (final volume 0.25 ml) for 15 min. The actual test was performed as described in example 7 of WO 02/092024 A2, with GC as the test method.

protein of SEQ ID NO 1 (yxel gene product), sequence (P54948 whole entry G69A/I70F/T91M/P219S): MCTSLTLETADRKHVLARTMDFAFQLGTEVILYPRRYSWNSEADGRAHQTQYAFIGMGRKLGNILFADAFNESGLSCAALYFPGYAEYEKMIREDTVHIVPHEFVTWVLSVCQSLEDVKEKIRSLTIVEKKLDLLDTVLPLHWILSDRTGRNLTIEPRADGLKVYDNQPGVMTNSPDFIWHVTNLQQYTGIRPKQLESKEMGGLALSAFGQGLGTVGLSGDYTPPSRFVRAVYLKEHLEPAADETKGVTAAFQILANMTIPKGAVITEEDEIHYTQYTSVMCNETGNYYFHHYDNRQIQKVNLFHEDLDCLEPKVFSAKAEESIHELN

## CC(=O)[O-].[Na+] [sodium acetate]
  enzyme activity (inhibition of N-alpha-lauryl-glutamin cleavage): inhibited to the level of the background activity

Source: patent publication US9249448B2 (priority 2010, dated 2016)
